These results are taken from article PMC9499463, “Potent Chlorambucil-Platinum(IV) Prodrugs” (International Journal of Molecular Sciences, 2022).

What all share (type): cell-based, human
One experiment has as its system HT29 colon cells. The experiment is described as follows: ROS detection assay (DCFH-DA fluorescence). Conditions: compounds at GI50 concentration, TBHP and NAC 20 μM. As to the method:
HT29 colon cells were stained by DCFH-DA and then treated with the compounds at each specific GI50 concentration. Upon ROS production, the DCFH-DA produced […], a fluorescent product. The measured fluorescence was, therefore, proportional to the produced ROS. […] 56CLB at 24 h reported 395 RFU, 437 RFU at 48 h, and 558 RFU at 72 h (Table 6, Figure 14 and Figure S42), respectively, showing a significant production of ROS in comparison to control cells. 5CLB at 24 h produced 337 RFU, 324 RFU at 48 h, and 376 RFU at 72 h (Table 6, Figure 14 and Figure S42), respectively.
To investigate for the presence of ROS in treated cells, DCFDA/H2DCFDA-cellular ROS Assay Kit (Abcam, Cambridge, MA, USA) was used, as described. A total of 25,000 cells/mL of HT29 cells in DMEM were seeded in 96-well plates. Cells were washed with 1X kit buffer, then stained with 25 μM 2’,7’-dichlorofluorescein diacetate (DCFH-DA) and incubated for 45 min. DCFH-DA was then removed, and cells were then re-washed with 1X kit buffer, after which phenol red free media was added. Cells were then treated with GI50 drug concentration for each complex. The plates were directly scanned to measure fluorescence (relative fluorescence units (RFU)) at different time points using the Glo-Max®-Multimode microplate reader (Promega Corporation, Alexandra, VIC, Australia) at an excitation/emission of 485/535 nm. To generate the positive control (20 μM tert-butyl hydroperoxide (TBHP)), cells were washed with 1X kit buffer, and stained with DCFDA (25 μM) for 45 min. DCFDA was then removed and TBHP was added in phenol red free media. The plate was scanned to measure the RFU at different time points as mentioned above. The same method applies for the negative control treated with 20 μM N-acetylcysteine (NAC).

A further experiment concerns HT29 colon. The experiment can be described thus: MTT growth inhibition assay, 72 h. Conditions: for GI50: MTT, 72 h. On the technique in general: Tetrazolium assays rely on reduction of a dye to a coloured formazan, in cell work by metabolically active cells.
A further experiment concerns U87 glioblastoma. The experiment is described as follows: MTT growth inhibition assay, 72 h.
The test system of another experiment is MCF-7 breast. The experiment is described as follows: MTT growth inhibition assay, 72 h. The settings on record: MTT, 72 h.
A further experiment deals with A2780 ovarian. The experiment can be described thus: MTT growth inhibition assay, 72 h.
The subject of a further experiment is H460 lung. The experiment can be described thus: MTT growth inhibition assay, 72 h.
For a further experiment, the system named is A431 skin. The experiment is described as follows: MTT growth inhibition assay, 72 h.
For the next experiment, the system named is Du145 prostate. The experiment is described as follows: MTT growth inhibition assay, 72 h. The settings on record: for GI50: MTT, 72 h.
Another experiment relates to BE2-C neuroblastoma. The experiment is described as follows: MTT growth inhibition assay, 72 h.
For another experiment, the system named is SJ-G2 glioblastoma. The experiment is described as follows: MTT growth inhibition assay, 72 h.
The subject of the next experiment is MIA pancreas. The experiment can be described thus: MTT growth inhibition assay, 72 h. Conditions: for fold more active than CLB: MIA pancreas cell line; for GI50: MTT, 72 h.
The test system of experiment [1] is non-tumor-derived MCF10A breast line. The experiment can be described thus: MTT growth inhibition assay, 72 h.
In experiment [2] the test system is ADDP ovarian (cisplatin-resistant A2780 clone). The experiment can be described thus: MTT growth inhibition assay, 72 h. The settings on record: for GI50: MTT, 72 h; for fold more active than cisplatin: ADDP ovarian cell line.
The next experiment concerns panel of cell lines. The experiment is described as follows: MTT growth inhibition assay, 72 h, over the cell line panel. The settings on record: average over all cell lines tested; read-out: Average GI50 Values.

Where “and” joins values, the source holds several entries; their conditions need not be identical. Equal values may be shown once. Some results are limits rather than exact numbers.

With `CC(C)(C)OO` [TBHP, tert-butyl hydroperoxide, reference compound], the “ROS Production” value was 514 RFU and 514 ± 3 RFU in the experiment with HT29 colon cells (24 h); 336 RFU and 336 ± 2 RFU in the experiment with HT29 colon cells (48 h); 332 RFU and 332 ± 5 RFU with HT29 colon cells (72 h).

By GI50 is commonly meant the concentration that inhibits growth by half. Consider `N.N.[Cl][Pt][Cl]` [Cisplatin, cis-diamminedichloroplatinum(II), reference compound], for which the GI50 with HT29 colon stood at 11.3 µM; with U87 glioblastoma it was 3.8 ± 0.0011 µM; in the experiment on MCF-7 breast, 6.5 ± 0.0008 µM; in the experiment with A2780 ovarian, 1 ± 0.0001 µM; with H460 lung, 0.9 ± 0.0002 µM; in the experiment with A431 skin, 2.4 ± 0.0003 µM. Further, the GI50 with Du145 prostate is 1.2 ± 0.0001 µM; in the experiment on BE2-C neuroblastoma, 1.9 ± 0.0002 µM; with SJ-G2 glioblastoma, 0.4 ± 0.0001 µM; in the experiment on MIA pancreas, 7.5 ± 0.0013 µM; in experiment [1] it was 5.2 ± 0.00052 µM; in [2] it was 28 µM. Moreover, the GI50 with panel of cell lines was 5.842 ± 0.00061 µM. The “fold more active than CLB” value in the experiment with MIA pancreas was found to be 5 fold. Besides, the “ROS Production” value is 214 ± 9 RFU in the experiment on HT29 colon cells (24 h), 214 ± 9 RFU in the experiment with HT29 colon cells (48 h) and 200 ± 9 RFU with HT29 colon cells (72 h).

In the case of `Cc1c(C)c2cccnc2c2ncccc12.N[C@H]1CCCC[C@@H]1N.[Cl][Pt][Cl]` [56MESS, [Pt^II(5,6-dimethyl-1,10-phenanthroline)(1S,2S-diaminocyclohexane)]Cl2], the “fold more active than CLB” value in the experiment with HT29 colon (HT29 colon cell line) and in the experiment on MIA pancreas was ~4000 fold in each case. For the same molecule, the GI50 with HT29 colon came out at 0.01 ± 1.6e-06 µM; with U87 glioblastoma it was 0.035 ± 6.4e-06 µM; in the experiment on MCF-7 breast, 0.093 ± 4.4e-05 µM; in the experiment on A2780 ovarian, 0.076 ± 5.7e-05 µM; with H460 lung, 0.021 ± 1.9e-06 µM; in the experiment with A431 skin it was 0.029 ± 1e-06 µM. Besides, the GI50 in the experiment on Du145 prostate was 0.0046 ± 3.9e-07 µM; in the experiment with BE2-C neuroblastoma, 0.059 ± 4.1e-06 µM; in the experiment on SJ-G2 glioblastoma, 0.066 ± 2.2e-05 µM; in the experiment on MIA pancreas, 0.013 ± 2e-06 µM; in experiment [1], 0.016 ± 1.2e-06 µM; in experiment [2], 0.013 ± 2.2e-06 µM. In the experiment with panel of cell lines, the GI50 is 0.04 µM and 0.036 µM. In addition, the “fold increase in potency compared to CLB” value in the experiment with Du145 prostate (Du145 prostate cell line) came out at 6000 fold. In addition, in [2], the “fold more active than cisplatin” value is reported as “more than 2000 fold”. In addition, the “ROS Production” value in the experiment on HT29 colon cells (24 h) was 240 ± 5 RFU; in the experiment with HT29 colon cells (48 h) it was 218 ± 3 RFU; in the experiment on HT29 colon cells (72 h), 255 ± 4 RFU.

Take `CC(=O)N[C@@H](CS)C(=O)O` [NAC, N-acetylcysteine, reference compound]: the “ROS Production” value worked out at 71 ± 2 RFU with HT29 colon cells (24 h), 85 ± 6 RFU in the experiment with HT29 colon cells (48 h) and 91 ± 5 RFU in the experiment on HT29 colon cells (72 h).

For `N[C@H]1CCCC[C@@H]1N.[Cl][Pt][Cl].c1cnc2c(c1)ccc1cccnc12` [PHENSS, [Pt^II(1,10-phenanthroline)(1S,2S-diaminocyclohexane)]Cl2], the 50% growth inhibitory concentration (GI50) is 0.16 ± 4.5e-05 µM with HT29 colon; 0.98 ± 0.00027 µM in the experiment with U87 glioblastoma; 1.5 ± 0.0005 µM in the experiment with MCF-7 breast; 0.23 ± 3e-05 µM with A2780 ovarian; 0.36 ± 3.5e-05 µM in the experiment on H460 lung; 0.48 ± 0.00017 µM in the experiment with A431 skin. For the same molecule, the GI50 in the experiment with Du145 prostate amounted to 0.1 ± 3.8e-05 µM; in the experiment on BE2-C neuroblastoma, 0.38 ± 4.6e-05 µM; with SJ-G2 glioblastoma, 0.33 ± 6.6e-05 µM; in the experiment with MIA pancreas, 0.2 ± 5.7e-05 µM; in experiment [1] it was 0.3 ± 5.8e-05 µM; in [2], 0.19 ± 4.7e-05 µM. Further, the GI50 in the experiment with panel of cell lines came to 0.434 ± 0.00011 µM. Further, the “fold more active than cisplatin” value in experiment [2] came out at 150 fold. The “ROS Production” value with HT29 colon cells (24 h) was found to be 174 ± 2 RFU; in the experiment with HT29 colon cells (48 h), 172 ± 9 RFU; in the experiment with HT29 colon cells (72 h), 176 ± 7 RFU.

As for `O=C1[O][Pt]2([NH][C@@H]3CCCC[C@H]3[NH]2)[O]C1=O` (relative stereo) [Oxaliplatin, trans-L-(1R,2R-diaminocyclohexane) oxalatoplatinum(II), reference compound], the GI50 was determined as 0.9 ± 0.0002 µM in the experiment with HT29 colon; 1.8 ± 0.0002 µM in the experiment on U87 glioblastoma; 0.5 ± 0.0001 µM with MCF-7 breast; 0.16 ± 0.0001 µM with A2780 ovarian; 1.6 ± 0.0001 µM in the experiment on H460 lung; 4.1 ± 0.0005 µM in the experiment with A431 skin. For the same molecule, the GI50 is 2.9 ± 0.0004 µM in the experiment on Du145 prostate; 0.9 ± 0.0002 µM in the experiment with BE2-C neuroblastoma; 3 ± 0.0012 µM with SJ-G2 glioblastoma; 0.9 ± 0.0002 µM with MIA pancreas; 0.8 ± 0.0001 µM in [2]; 1.463 ± 0.00032 µM in the experiment with panel of cell lines. For the same molecule, the “fold more active than CLB” value in the experiment with MIA pancreas is reported as 44 fold.

For the molecule `N.N.O=C([O-])C1(C(=O)[O-])CCC1.[Pt+2]` [Carboplatin, cis-diammine(1,1-cyclobutanedicarboxylato) platinum(II), reference compound], the GI50 with HT29 colon is > 50 µM; in the experiment on U87 glioblastoma it was > 50 µM; in the experiment with MCF-7 breast, > 50 µM; in the experiment with A2780 ovarian, 9.2 ± 0.0029 µM; with H460 lung, 14 µM; in the experiment on A431 skin, 24 µM. The GI50 is 15 µM in the experiment with Du145 prostate; 19 µM in the experiment on BE2-C neuroblastoma; 5.7 ± 0.0002 µM in the experiment on SJ-G2 glioblastoma; > 50 µM with MIA pancreas; > 50 µM in experiment [1]; > 50 µM in experiment [2]. For the same molecule, the GI50 in the experiment on panel of cell lines came out at 32.2 µM.

Turning to `Cc1cc2cccnc2c2ncccc12.N[C@H]1CCCC[C@@H]1N.[Cl][Pt][Cl]` [5MESS, [Pt^II(5-methyl-1,10-phenanthroline)(1S,2S-diaminocyclohexane)]Cl2], the GI50 in the experiment with HT29 colon is 0.033 ± 3.8e-06 µM; with U87 glioblastoma it was 0.32 ± 2.6e-05 µM; with MCF-7 breast, 0.2 ± 1.2e-05 µM; in the experiment on A2780 ovarian, 0.061 ± 1e-05 µM; in the experiment on H460 lung, 0.041 ± 5e-06 µM; in the experiment with A431 skin, 0.12 ± 2.5e-05 µM. For the same molecule, the GI50 was 0.022 ± 2.7e-06 µM with Du145 prostate; 0.27 ± 3.8e-05 µM with BE2-C neuroblastoma; 0.22 ± 1e-05 µM in the experiment with SJ-G2 glioblastoma; 0.048 ± 2e-06 µM in the experiment on MIA pancreas; 0.03 ± 1.8e-06 µM in experiment [1]; 0.034 ± 2.3e-06 µM in experiment [2]. Moreover, the GI50 in the experiment with panel of cell lines stood at 0.117 ± 1e-05 µM. The “fold more active than cisplatin” value in [2] is 800 fold. Further, the “ROS Production” value in the experiment on HT29 colon cells (24 h) came to 204 ± 4 RFU; in the experiment on HT29 colon cells (48 h) it was 205 ± 3 RFU; in the experiment on HT29 colon cells (72 h), 188 ± 3 RFU.
